{"source": "patent US4426378A", "about": "“Thyrotropin releasing hormone in therapy of shock and as a central nervous system stimulant” (The United States of America as represented by the …, priority 1981, dated 1984)", "key": {"[1]": {"tested_on": "rats subjected to endotoxic shock", "assay": "Endotoxic shock (E. coli lipopolysaccharide endotoxin i.v.), Experiment No. 1", "type": "in vivo, male Sprague-Dawley rats", "settings": "TRH 2 mg/kg i.v.", "text": "(§1) Tail-artery and external-jugular vein cannulae were implanted in male Sprague-Dawley rats (250-300 g; Zivic-Miller Labs) according to standard surgical techniques. Twenty-four hours later, the arterial cannula were connected to a microtransducer (Narco Biosystems, RP 1500 attached to a Beckman physiograph, type R). This arrangement permitted continuous measurement of blood pressure and heart rate in awake, freely moving rats in their home cages.\nA second group of rats was subjected to endotoxic vasogenic, septic) shock by the i.v. administration of Escherichia coli lipopolysaccharide endotoxin (15 mg/kg; Difco, control #654109). In these animals, MAP fell to 67-70 mm Hg, which was approximately 26% (24 mm Hg) below baseline levels of 92.7±1.9 mm Hg (n=22). These rats, randomly divided into two groups, were treated with either i.v. TRH (2 mg/kg, n=13) or an equal volume of i.v. saline (1.0 ml/kg, n=11), followed by a 0.2 ml cannula flush."}, "[2]": {"tested_on": "rats", "assay": "Tail-flick procedure (thermal stimulus to the tail)", "type": "in vivo", "settings": "n=6", "procedure": "(§2) To confirm the lack of effect of TRH upon analgesic responses, an additional group of rats was equipped with intravenous cannulae only. One day later, rats were divided into 3 groups (n=6/group). Group one received TRH alone (2.0 mg/kg--a dose with therapeutic effects in shock), group two received morphine sulfate (4 mg per kg) followed by TRH (2.0 mg per kg), and group three got morphine sulfate alone (4.0 mg per kg). Pain latencies were determined by applying a thermal stimulus to the tail, tail-flick procedure, FIG. 4a, and by measuring how long required for a rat to escape from an enclosure with a heated floor (53° C.), FIG. 4b."}, "[3]": {"tested_on": "rats", "assay": "Behavioral effects of intravenous TRH (CNS stimulant)", "type": "in vivo", "procedure": "(§3) Follow-up studies were performed to evaluate other physiological parameters, TRH dose-response characteristics, and the effect of TRH on endotoxic shock survival in the rat. The experiments were conducted identically as described above in Experiment No. 1 for initial endotoxic shock studies, except heart rate, pulse pressure, respiration rate, and behavioral measures were examined following treatment with intravenous saline or TRH (0.2, 0.63, 2.0, 6.34, or 20.0 mg per kilogram body weight). Survival at 2 hours post drug treatment was also assessed. […] Pressure fell from 98.0±1.3(SE) millimeters of mercury (mm Hg) to 70.7±1.6 (SE) mm Hg, student's t=13.3, p 0.001.\nIn addition to its effects upon physiological parameters, intravenous TRH also produced a variety of behavioral effects indicative of its action as a CNS stimulant."}, "[4]": {"tested_on": "rats subjected to hemorrhagic shock", "assay": "Hemorrhagic shock, Experiment No. 3", "type": "in vivo", "settings": "TRH 2 mg/kg i.v.", "procedure": "Another group of rats was subjected to hemorrhagic shock according to our previous experimental design. In a total of 27 rats, blood was withdrawn from the indwelling external jugular vein cannula; MAP fell from 96.5±1.6 mm Hg to 37.2±1.0 mm Hg where it was maintained for 20 minutes. A total of […] (body weight) of blood was removed, a volume approximating 45% of estimated total blood volume. Following the 20 minutes of controlled oligemia, animals were treated with either i.v. TRH (2 mg/kg, m=15) or an equal volume of i.v. saline (1.0 ml/kg, n=12) followed by a 0.2 ml cannula flush. Shed blood was not returned. […] The duration of this effect was about 30 minutes, approximately equivalent to the duration of the pressor response to TRH in normotensive rats not subjected to shock, FIG. 3a. In this model, saline-treated rats also experienced an increase in MAP, a consequence of the fluid volume infused."}, "[5]": {"tested_on": "rats", "assay": "Escape from enclosure with heated floor (53° C.)", "type": "in vivo", "procedure": "as §2"}, "[6]": {"tested_on": "rats subjected to endotoxic shock", "assay": "Endotoxic shock follow-up: dose-response, cardiorespiratory variables and survival, Experiment No. 2", "type": "in vivo, rat", "settings": "for pulse pressure / change in mean arterial pressure / respiratory rate / heart rate: 15 min following treatment; for survival, alive/dead: 2 hrs following treatment (saline 4/4)", "procedure": "as §3\nWhen saline-control rat mortality was compared to mortality in all TRH-treated animals over the 2 hour measurement interval, there was a significant decrease in the lethal effects of endotoxemia produced by a single injection of this substance (Fisher exact probability, p=0.01)."}, "[7]": {"tested_on": "control rats not subjected to shock", "assay": "Cardiovascular effects of i.v. TRH in control rats not subjected to shock", "type": "in vivo, male Sprague-Dawley rats", "settings": "TRH 2 mg/kg i.v.", "text": "as §1\nIn control rats which were not subjected to shock, the cardiovascular effects of intravenous (i.v.) TRH alone were determined. A dose of 2 mg/kg body weight TRH (Beckman Labs) was injected, followed by a cannula flush (0.2 ml saline) to ensure complete drug delivery. Cardiovascular parameters were monitored for two hours. TRH administration caused a significant increase in mean arterial pressure (MAP) of 11.1±1.5 mm Hg (n-10, Student's t=7.25, p 0.001), with peak effects observed at 5-minute post-injection and persisting for 30 minutes (FIG. 1)."}}, "data": [{"smiles": "NC(=O)[C@@H]1CCCN1C(=O)[C@H](Cc1c[nH]cn1)NC(=O)[C@@H]1CCC(=O)N1", "note": "[TRH, L-pyroglutamyl-L-histidyl-L-proline amide]", "values": [{"measurement": "increase in MAP", "setting": "[1]; n=13, average during first 30 minutes post-treatment, endotoxin 15 mg/kg", "value": "20-25 mm Hg"}, {"measurement": "MAP area scores vs saline", "setting": "[1]; triangulation of response-time data, Student's t=5.66, p<0.001", "value": "significant differences between the two treatment groups"}, {"measurement": "pain latency, tail-flick", "setting": "[2]; TRH alone 2.0 mg/kg i.v.", "value": "no effect"}, {"measurement": "effect on morphine-induced analgesia, tail-flick", "setting": "[2]; morphine sulfate 4 mg per kg followed by TRH 2.0 mg per kg", "value": "did not alter the intensity or duration of morphine-induced analgesia"}, {"measurement": "lowest dose at which wet-dog shaking behavior was observed", "setting": "[3]; intravenous TRH", "value": 0.63, "unit": "mg per kg"}, {"measurement": "tail-rattling, oral \"chewing\" stereotypies, and piloerection", "setting": "[3]; intravenous TRH 6.34 or 20.0 mg per kg body weight", "value": "frequently observed"}, {"measurement": "duration of MAP effect", "setting": "[4]", "value": "about 30 minutes"}, {"measurement": "MAP higher than saline-control rats", "setting": "[4]; n=15, first 15 minutes following injection", "value": "20-25 mm Hg"}, {"measurement": "MAP area scores vs saline", "setting": "[4]; Student's t=2.11, p<0.05", "value": "significantly greater"}, {"measurement": "pain latency, escape from heated floor", "setting": "[5]; TRH alone 2.0 mg/kg i.v., n=6, 53° C.", "value": "no effect"}, {"measurement": "effect on morphine-induced analgesia, escape from heated floor", "setting": "[5]; morphine sulfate 4 mg per kg followed by TRH 2.0 mg per kg, n=6", "value": "did not alter the intensity or duration of morphine-induced analgesia"}, {"measurement": "TRH dose vs improvement in MAP", "setting": "[6]; 15 minutes following treatment, n=34, r=0.43, p<0.02", "value": "significant dose-response correlation"}, {"measurement": "pulse pressure", "setting": "[6]; TRH 0.20 mg/Kg IV, n=8, spread ±2.9", "value": 24.4, "unit": "mm Hg"}, {"measurement": "change in mean arterial pressure", "setting": "[6]; TRH 0.20 mg/Kg IV, n=8, spread ±5.1", "value": 21.4, "unit": "mm Hg"}, {"measurement": "respiratory rate", "setting": "[6]; TRH 0.20 mg/Kg IV, n=8, spread ±6.8", "value": 107.0, "unit": "breaths/min."}, {"measurement": "heart rate", "setting": "[6]; TRH 0.20 mg/Kg IV, n=8, spread ±16.8", "value": 465.0, "unit": "beats/min"}, {"measurement": "survival, alive/dead", "setting": "[6]; TRH 0.20 mg/Kg", "value": "7/1"}, {"measurement": "respiratory rate", "setting": "[6]; TRH 0.63 mg/Kg IV, n=8, spread ±4.0", "value": 109.0, "unit": "breaths/min."}, {"measurement": "change in mean arterial pressure", "setting": "[6]; TRH 0.63 mg/Kg IV, n=8, spread ±5.2", "value": 20.9, "unit": "mm Hg"}, {"measurement": "pulse pressure", "setting": "[6]; TRH 0.63 mg/Kg IV, n=8, spread ±5.7", "value": 36.2, "unit": "mm Hg"}, {"measurement": "heart rate", "setting": "[6]; TRH 0.63 mg/Kg IV, n=8, spread ±22.4", "value": 470.0, "unit": "beats/min"}, {"measurement": "survival, alive/dead", "setting": "[6]; TRH 0.63 mg/Kg", "value": "8/0"}, {"measurement": "pulse pressure", "setting": "[6]; TRH 2.00 mg/Kg IV, n=8, spread ±3.9", "value": 33.1, "unit": "mm Hg"}, {"measurement": "change in mean arterial pressure", "setting": "[6]; TRH 2.00 mg/Kg IV, n=8, spread ±5.1", "value": 24.2, "unit": "mm Hg"}, {"measurement": "respiratory rate", "setting": "[6]; TRH 2.00 mg/Kg IV, n=8, spread ±6.9", "value": 125.0, "unit": "breaths/min."}, {"measurement": "heart rate", "setting": "[6]; TRH 2.00 mg/Kg IV, n=8, spread ±24.0", "value": 517.5, "unit": "beats/min"}, {"measurement": "survival, alive/dead", "setting": "[6]; TRH 2.00 mg/Kg", "value": "7/1"}, {"measurement": "change in mean arterial pressure", "setting": "[6]; TRH 6.34 mg/Kg IV, n=8, spread ±3.7", "value": 35.1, "unit": "mm Hg"}, {"measurement": "pulse pressure", "setting": "[6]; TRH 6.34 mg/Kg IV, n=8, spread ±4.1", "value": 37.5, "unit": "mm Hg"}, {"measurement": "respiratory rate", "setting": "[6]; TRH 6.34 mg/Kg IV, n=8, spread ±4.3", "value": 147.0, "unit": "breaths/min."}, {"measurement": "heart rate", "setting": "[6]; TRH 6.34 mg/Kg IV, n=8, spread ±21.0", "value": 530.0, "unit": "beats/min"}, {"measurement": "survival, alive/dead", "setting": "[6]; TRH 6.34 mg/Kg", "value": "8/0"}, {"measurement": "effect on pulse pressure and heart rate", "setting": "[6]; TRH i.v., endotoxic shock", "value": "increased pulse pressure and heart rate"}, {"measurement": "effect on respiration rate", "setting": "[6]; TRH i.v., endotoxic shock", "value": "increased in a dose-related manner"}, {"measurement": "survival following endotoxic shock", "setting": "[6]; all TRH-treated vs saline-control, 2 hour interval, single injection, Fisher exact probability p=0.01", "value": "significantly improved"}, {"measurement": "persistence of MAP increase", "setting": "[7]; control rats", "value": 30, "unit": "min"}, {"measurement": "time of peak effect on MAP post-injection", "setting": "[7]; control rats", "value": 5, "unit": "min"}, {"measurement": "increase in mean arterial pressure (MAP)", "setting": "[7]; normotensive control rats, n=10", "value": "11.1±1.5", "unit": "mm Hg"}]}]}
